Patent publication US11179348B2, “Combination comprising pterostilbene for the treatment of cancer” (FUNDACIÓN UNIVERSIDAD CATÓLICA DE VALENCIA SAN VICENTE …, priority 2015, dated 2021)
Marks after values point to notes of the source that are not given here.

Key:
A549 lung adenocarcinoma = test: In vivo growth of A549 lung cancer xenografts; design: species or system human; details: A549, day 35
[1] = test system: glucocorticoid receptors (GR); test: GR content of human cancer cells by [3H]-labeled ligand whole-cell binding assay
[2] = test system: AsPC-1 pancreatic cancer cells; test: Nrf2- and redox state-related enzyme activities and metabolites in AsPC-1 cells growing in vivo; design: species or system human; details: AsPC-1, in vivo +Pter, day 28
Procedure: To measure enzyme activity, isolated tumor cells were homogenized in 0.1 M phosphate buffer (pH 7.2) at 4° C. GCL and GSS activities were measured as described previously (Obrador, E. et al. Hepatology 35, 74-81 (2002)). GPX (selenium dependent) activity was measured as described by Flohé and Gunzler (Flohe, L. & Gunzler, W. A. Methods Enzymol 105, 114-121 (1984)) using H2O2 as a substrate. GSR activity was determined as described by Akerboom and Sies (Akerboom, T. P. et al, Bull Eur Physiopathol Respir 17 Suppl, 221-227 (1981)). GGT activity was measured as described previously (Obrador, E. et al. Hepatology 35, 74-81 (2002)). GST activity was measured using an assay kit from Sigma. TXNRD activity, defined by the concentration of sodium-lipoate (disulfide) reduced to dehydrolipoate (dithiol) per milligram protein, was measured as previously described (Javvadi, P. et al. Cancer Res 70, 1941-1950 (2010)). SOD activity was measured as described by Flohé and Otting (Flohe, L. & Otting, F. Methods Enzymol 105, 93-104 (1984).) using 2 mM cyanide in the assay medium to distinguish mangano-type enzyme (SOD2) from the cuprozinc type (SOD1). CAT activity was analyzed as described by Aebi (Aebi, H. Methods Enzymol 105, 121-126 (1984)). NOX activity was measured by chemiluminescence following the methodology of Wind et al. (Wind, S. et al. Comparative pharmacology of chemically distinct NADPH oxidase inhibitors. Br J Pharmacol 161, 885-898 (2010)). Protein concentration was determined with the Pierce BCA protein assay (Fisher Scientific, Waltham, Mass.). […]
GSH, GSSG, NADP^+ and NADPH Determination.
GSH and GSSG were determined, following procedures previously described (Obrador, E. et al. PLoS One 9, e96466 (2014)), by LC/MS using the same equipment described above for pterostilbene determination. Cell processing was performed according to published methodology, where rapid N-ethylmaleimide derivatization was used to prevent GSH auto-oxidation (Asensi, M. et al. Anal Biochem 217, 323-328 (1994)). NADP^+ and NADPH were quantitated using an assay kit from Sigma (St. Louis, Mo.).

**Q.** For `COc1cc(/C=C/c2ccc(O)cc2)cc(OC)c1` [Pter, trans-3,5-dimethoxy-4′-hydroxystilbene], which Tumor vol. (A549 lung adenocarcinoma) is on record?
**A.** 223 ± 88* mm^3

**Q.** And the GR number ([1]; A549, day 35)?
**A.** 41 ± 10 10^3 GR/cell

**Q.** What about the “GR number (binding sites/cell)” value ([1]; A2058-RFP tumors, day 35) of the same compound?
**A.** 71 ± 5 10^3 GR/cell

**Q.** What about the “GR number (binding sites/cell)” value ([1]; AsPC-1-RFP tumors, day 28) of the same compound?
**A.** 63 ± 10 10^3 GR/cell

**Q.** What about the “GR number (binding sites/cell)” value ([1]; BxPC-3-RFP tumors, day 35) of the same compound?
**A.** 115 ± 27 10^3 GR/cell

**Q.** And the GR number ([1]; Caco-2, day 28)?
**A.** 7 ± 2 10^3 GR/cell

**Q.** What about the GR number ([1]; HT-29, day 21) of the same compound?
**A.** 14 ± 3 10^3 GR/cell

**Q.** And the GR number ([1]; HepG2, day 35)?
**A.** 45 ± 11 10^3 GR/cell

**Q.** What about the GR number ([1]; LNCaP, day 49) of the same compound?
**A.** 3 ± 1 10^3 GR/cell

**Q.** What about the GR number ([1]; MCF-7, day 28) of the same compound?
**A.** <1 10^3 GR/cell

**Q.** And the GR number ([1]; MDA-MB-231, day 35)?
**A.** 18 ± 3 10^3 GR/cell

**Q.** What about the “GR number (binding sites/cell)” value ([1]; MeWo-RFP tumors, day 35) of the same compound?
**A.** 45 ± 6 10^3 GR/cell

**Q.** And the “GR number (binding sites/cell)” value ([1]; MelJuso-RFP tumors, day 35)?
**A.** 47 ± 4 10^3 GR/cell

**Q.** What about the GR number ([1]; PC-3, day 21) of the same compound?
**A.** 21 ± 6 10^3 GR/cell

**Q.** What about the GR number ([1]; SK-OV-3, day 49) of the same compound?
**A.** 25 ± 7 10^3 GR/cell

**Q.** What about the CAT [2] of the same compound?
**A.** 1.2 ± 0.3 mU/10^6 cells

**Q.** What about the G6PDH [2] of the same compound?
**A.** 317 ± 84 mU/10^6 cells

**Q.** What about the GCL [2] of the same compound?
**A.** 85 ± 27 mU/10^6 cells

**Q.** What about the GGT [2] of the same compound?
**A.** 27.5 ± 7.4 mU/10^6 cells

**Q.** What about the GPX [2] of the same compound?
**A.** 15.0 ± 2.6 mU/10^6 cells

**Q.** What about the GSH [2] of the same compound?
**A.** 10.4 ± 2.0 nmol/10^6 cells

**Q.** What about the GSH/GSSG [2] of the same compound?
**A.** 35 ± 6

**Q.** And the GSR [2]?
**A.** 5.5 ± 1.2 mU/10^6 cells

**Q.** What about the GSS [2] of the same compound?
**A.** 12.4 ± 2.7 mU/10^6 cells

**Q.** And the GSSG [2]?
**A.** 0.3 ± 0.1 nmol/10^6 cells

**Q.** What about the GST [2] of the same compound?
**A.** 8.0 ± 1.5 mU/10^6 cells

**Q.** What about the H2O2 [2] of the same compound?
**A.** 1.4 ± 0.3 nmol/10^6 cells × min

**Q.** And the IDH [2]?
**A.** 1.0 ± 0.3 U/10^6 cells

**Q.** What about the ME [2] of the same compound?
**A.** 55 ± 15 mU/10^6 cells

**Q.** What about the NADPH [2] of the same compound?
**A.** 0.05 ± 0.02 nmol/mg prot

**Q.** And the “NADPH/NADP^+” value [2]?
**A.** 1.7 ± 0.4

**Q.** And the “NADP^+” value [2]?
**A.** 0.03 ± 0.01 nmol/mg prot

**Q.** And the NOX [2]?
**A.** 115 ± 33 R.L.U./10^6 cells

**Q.** What about the “O2′−” value [2] of the same compound?
**A.** 8.4 ± 2.4 ΔFL1, a.u.

**Q.** What about the SOD1 [2] of the same compound?
**A.** 0.2 ± 0.05 U/10^6 cells

**Q.** What about the SOD2 [2] of the same compound?
**A.** 0.05 ± 0.02 U/10^6 cells

**Q.** What about the TXN [2] of the same compound?
**A.** 0.3 ± 0.15 μg/10^6 cells

**Q.** What about the TXNRD [2] of the same compound?
**A.** 0.7 ± 0.2 U/10^6 cells
